Assay results as given in US8063204B2, “Benzothiazole and benzoxazole linked pyrrolo[2,1-c] [1, 4] benzodiazepine hybrids as novel antitumour agents and process for the preparation thereof” (Council of Scientific & Industrial Research, priority 2007, dated 2011).

How the values were obtained:
Non-small-cell-lung = experiment: NCI in vitro anticancer screen, SRB assay, non-small-cell lung panel; type: cell-based, human; conditions: average of six to nine cell lines, 48 h; for GI50: Homo sapiens, read-out: Log10 GI50 (converted)
Procedure: (§1) Anticancer activity: In vitro biological activity studies were carried out at the National Cancer Institute (USA).
(§2) The compounds were evaluated for in vitro anticancer activity against sixty human tumour cells derived from nine cancer types (leukemia, non-small-cell lung, colon, CNS, melanoma, ovarian, prostate, and breast cancer) as shown in Table 3. For each compound, dose response curves for each cell line were measured at a minimum of five concentrations at 10 fold dilutions. A protocol of 48 h continuous drug exposure was used and a sulforhodamine B (SRB) protein assay was used to estimate cell viability or growth. The concentration causing 50% cell growth inhibition (GI50), total cell growth inhibition (TGI 0% growth) and 50% cell death (LC50, −50% growth) compared with the control was calculated.

Renal = experiment: NCI in vitro anticancer screen, SRB assay, renal panel; type: cell-based, human; conditions: average of six to nine cell lines, 48 h; for GI50: Homo sapiens, read-out: Log10 GI50 (converted)
Procedure: as §1, §2

Leukemia = experiment: NCI in vitro anticancer screen, SRB assay, leukemia panel; type: cell-based, human; conditions: average of six to nine cell lines, 48 h; for GI50: Homo sapiens, read-out: Log10 GI50 (converted)
Procedure: as §1, §2

Prostate = experiment: NCI in vitro anticancer screen, SRB assay, prostate panel; type: cell-based, human; conditions: average of six to nine cell lines, 48 h; for GI50: Homo sapiens, read-out: Log10 GI50 (converted)
Procedure: as §1, §2

Melanoma = experiment: NCI in vitro anticancer screen, SRB assay, melanoma panel; type: cell-based, human; conditions: average of six to nine cell lines, 48 h; for GI50: Homo sapiens, read-out: Log10 GI50 (converted)
Procedure: as §1, §2

Colon = experiment: NCI in vitro anticancer screen, SRB assay, colon panel; type: cell-based, human; conditions: average of six to nine cell lines, 48 h; for GI50: Homo sapiens, read-out: Log10 GI50 (converted)
Procedure: as §1, §2

CNS = experiment: NCI in vitro anticancer screen, SRB assay, CNS panel; type: cell-based, human; conditions: average of six to nine cell lines, 48 h; for GI50: Homo sapiens, read-out: Log10 GI50 (converted)
Procedure: as §1, §2

[1] = tested on: duplex-form calf thymus DNA (CT-DNA); experiment: Thermal denaturation studies with calf thymus DNA (DNA binding affinity); conditions: [PBD]:[DNA] molar ratio 1:5, CT-DNA 100 μM, ligand 20 μM, sodium phosphate buffer pH 7.00; for ΔTm after incubation at 37° C. for 0 h: 0 h incubation; for ΔTm after incubation at 37° C. for 18 h: 18 h incubation
Procedure: Compounds have been subjected to thermal denaturation studies with duplex-form calf thymus DNA (CT-DNA) using an modification of a reported procedure (Newman, M. S. Carcinog-compr. Surv. 1976, 1, 203; (b) Hecht, S. S.; Loy, M.; Hoffman, Carcinog-compr. Surv. 1976, 1, 325). Working solutions in aqueous buffer (10 mM NaH2PO4/Na2HPO4, 1 mM Na2EDTA, pH 7.00+0.01) containing CT-DNA (100 μm in phosphate) and the PBD (20 μm) have been prepared by addition of concentrated PBD solutions in DMSO to obtain a fixed [PBD]/[DNA] molar ratio of 1:5. The DNA-PBD solutions have been incubated at 37° C. for 0 and 18 h prior to analysis. Samples have been monitored at 260 nm using a Beckman DU-800 spectrophotometer fitted with high performance temperature controller, and heated at 1° C. min^−1 in the 40-110° C. range. DNA helix→coil transition temperatures (Tm) have been obtained from the maxima in the d(A260)/dT derivative plots. Drug-induced alterations in DNA melting behavior are given by: ΔTm=Tm(DNA+PBD)−Tm(DNA alone), where the Tm value for the PBD-free CT-DNA is 69.1±0.01.
The DNA binding activity for these novel C8-linked benzothiazole, benzoxazole-PBD hybrids has been examined by thermal denaturation studies using calf thymus (CT) DNA. […] The data for the compounds 9a-h is included in Table 1 for comparison.

[2] = tested on: sixty human tumour cells derived from nine cancer types; experiment: cells; type: cell-based; conditions: for Log10GI50 mean graph midpoint (MG_MID) / Log10LC50 mean graph midpoint (MG_MID) / Log10TGI mean graph midpoint (MG_MID): 48 h continuous drug exposure, SRB, mean over human tumour cell lines; for log10 GI50 anticancer activity, range over nine cancer cell types: range across nine cancer cell type
Procedure: as §1, §2

Ovarian = experiment: NCI in vitro anticancer screen, SRB assay, ovarian panel; type: cell-based, human; conditions: average of six to nine cell lines, 48 h; for GI50: Homo sapiens, read-out: Log10 GI50 (converted)
Procedure: as §1, §2

Breast = experiment: NCI in vitro anticancer screen, SRB assay, breast panel; type: cell-based, human; conditions: average of six to nine cell lines, 48 h; for GI50: Homo sapiens, read-out: Log10 GI50 (converted)
Procedure: as §1, §2

[3] = against nine human tumor cell lines

Compound	ΔTm after incubation at 37° C. for 0 h [1] [°C]	ΔTm after incubation at 37° C. for 18 h [1] [°C]	Log10GI50 mean graph midpoint (MG_MID) [2]	Log10LC50 mean graph midpoint (MG_MID) [2]	Log10TGI mean graph midpoint (MG_MID) [2]	log10 GI50 anticancer activity, range over nine cancer cell types [2] [mole/lit]	GI50 (Non-small-cell-lung) [nM]	GI50 (Renal) [nM]	GI50 (Leukemia) [nM]	GI50 (Prostate) [nM]	GI50 (Melanoma) [nM]	GI50 (Colon) [nM]	GI50 (CNS) [nM]	GI50 (Ovarian) [nM]	GI50 (Breast) [nM]	further results
COc1cc2c(cc1OCCCCOc1ccc(-c3nc4ccccc4s3)cc1)N=C[C@@H]1CCCN1C2=O [Compound 9a, 7-Methoxy-8-{4-[4-(1,3-benzothiazol-2-yl)phenoxy]butyl}oxy-(11aS)-1,2,3,11a-tetrahydro-5H-pyrrolo[2,1-c][1,4]benzodiazepin-5-one]	0.5	0.5	−6.30	−4.75	−5.63	−6.08 to −6.73	–	–	–	–	–	–	–	–	–	Log10 GI50 (Non-small-cell-lung): −6.12 mol/L; Log10 GI50 (Renal): −6.33 mol/L; Log10 GI50 (Leukemia): −6.73 mol/L; Log10 GI50 (Prostate): −6.55 mol/L; Log10 GI50 (Melanoma): −6.10 mol/L; Log10 GI50 (Colon): −6.38 mol/L; Log10 GI50 (CNS): −6.20 mol/L; LC50 (50% cell kill) ([2]; Homo sapiens, read-out: log10 LC50 mean graph midpoint value (converted)): 17800 nM; log10 GI50 mean graph midpoint value [2, 3]: −6.30 mol/lit; log10 TGI mean graph midpoint value [2, 3]: −5.63 mol/lit; Log10 GI50 (Ovarian): −6.08 mol/L; Log10 GI50 (Breast): −6.43 mol/L
COc1cc(-c2nc3ccccc3s2)ccc1OCCCCOc1cc2c(cc1OC)C(=O)N1CCC[C@H]1C=N2 [Compound 9b, 7-Methoxy-8-{4-[4-(1,3-benzothiazol-2-yl)-2-methoxyphenoxy]butyl}oxy-(11aS)-1,2,3,11a-tetrahydro-5H-pyrrolo[2,1-c][1,4]benzodiazepin-5-one]	0.5	0.5	−6.07	−4.67	−5.47	−5.85 to −6.45	1230	851	398	355	1170	759	1020	1410	646	–
COc1cc2c(cc1OCCCCCOc1ccc(-c3nc4ccccc4s3)cc1)N=C[C@@H]1CCCN1C2=O [Compound 9c, 7-Methoxy-8-{5-[4-(1,3-benzothiazol-2-yl)phenoxy]pentyl}oxy-(11aS)-1,2,3,11a-tetrahydro-5H-pyrrolo[2,1-c][1,4]benzodiazepin-5-one]	4.1	4.3	−6.15	−4.35	−5.30	−5.87 to −6.65	851	794	224	288	692	676	1120	1350	525	–
COc1cc(-c2nc3ccccc3s2)ccc1OCCCCCOc1cc2c(cc1OC)C(=O)N1CCC[C@H]1C=N2 [Compound 9d, 7-Methoxy-8-{5-[4-(1,3-benzothiazol-2-yl)-2-methoxyphenoxy]pentyl}oxy-(11aS)-1,2,3,11a-tetrahydro-5H-pyrrolo[2,1-c][1,4]benzodiazepin-5-one]	6.2	6.3	−7.09	−4.37	−5.78	−6.79 to −7.51	95.5	110	30.9	33.9	83.2	83.2	100	162	56.2	–
COc1cc2c(cc1OCCCCCOc1ccc(-c3nc4ccccc4o3)cc1)N=C[C@@H]1CCCN1C2=O [Compound 9e, 7-Methoxy-8-{5-[4-(1,3-benzoxazol-2-yl)phenoxy]pentyl}oxy-(11aS) 1,2,3,11a-tetra-hydro-5H-pyrrolo[2,1-c][1,4]benzodiazepin-5-one]	0.5	0.5	–	–	–	–	–	–	–	–	–	–	–	–	–	–
COc1cc(-c2nc3ccccc3o2)ccc1OCCCCCOc1cc2c(cc1OC)C(=O)N1CCC[C@H]1C=N2 [Compound 9f, 7-Methoxy-8-{5-[4-(1,3-benzoxazol-2-yl)-2-methoxyphenoxy]pentyl}oxy-(11aS) 1,2,3,11a-tetra-hydro-5H-pyrrolo[2,1-c][1,4]benzodiazepin-5-one]	2.1	4.2	–	–	–	–	–	–	–	–	–	–	–	–	–	–
COc1cc2c(cc1OCCCCCC(=O)Nc1ccc(-c3nc4ccccc4s3)cc1)N=C[C@@H]1CCCN1C2=O [Compound 9g, 7-Methoxy-8-{5-[N^1-(4-(1,3-benzothiazol-2-yl)phenyl)]pentanecarboxamide}oxy-(11aS)-1,2,3,11a-tetra-hydro-5H-pyrrolo[2,1-c][1,4]benzodiazepin-5-one]	4.1	4.3	–	–	–	–	–	–	–	–	–	–	–	–	–	–
COc1cc2c(cc1OCCCCCC(=O)Nc1ccc(-c3nc4ccc(F)cc4s3)cc1)N=C[C@@H]1CCCN1C2=O [Compound 9h, 7-Methoxy-8-{5-[N^1-(4-(6-fluoro-1,3-benzothiazol-2-yl)phenyl)]pentanecarboxamide}oxy-(11aS)-1,2,3,11a-tetra-hydro-5H-pyrrolo[2,1-c][1,4]benzodiazepin-5-one]	4.2	2.3	–	–	–	–	–	–	–	–	–	–	–	–	–	–
COc1cc2c(cc1O)N=CC1CCCN1C2=O (stereo not shown) [DC-81, reference compound]	0.3	0.7	–	–	–	–	–	–	–	–	–	–	–	–	–	–
